In patent US10174013B2, “Benzimidazole derivatives as kinase inhibitors” (SELVITA S.A., priority 2012, dated 2019):
Read-outs that look alike come from different tables or passages of the source.

Columns and labels:
Pim-2 = Pim-2 (Homo sapiens (Human), UniProt Q9P1W9); assay: ADP-Glo Kinase Assay, Pim-2; type: biochemical; conditions: 1 μM compound; for inhibition at 1 µM: read-out: Pim-2 % INH (1 μM)
In short: (§1)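 ADP-Glo luminescent ADP detection of human kinase activity in 5 mM MOPS pH 7.5, 5 mM MgCl2, 0.4 mM EDTA, 1.5 mM DTT. ATP at each kinase's apparent Km; compounds diluted to 1000 nM in assay buffer. Percent inhibition from normalised luminescence.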

Pim-1 = Pim-1 (Homo sapiens (Human), UniProt P11309); assay: ADP-Glo Kinase Assay, Pim-1; type: biochemical; conditions: 1 μM compound; for inhibition at 1 µM: read-out: Pim-1 % INH (1 μM)
In short: as §1

Pim-3 = Pim-3 (Homo sapiens (Human), UniProt Q86V86); assay: ADP-Glo Kinase Assay, Pim-3; type: biochemical; conditions: 1 μM compound; for inhibition at 1 µM: read-out: Pim-3 % INH (1 μM)
In short: as §1

MV4-11 cells = assay: Growth inhibition, MTS assay, MV4-11; type: cell-based, Human; conditions: MTS cell viability, read-out: MV4-11 ED50
HEL92 cells = assay: Growth inhibition, MTS assay, HEL92; type: cell-based, Human; conditions: MTS cell viability, read-out: HEL92 ED50
hERG potassium channel = hERG potassium channel (Homo sapiens (Human), UniProt Q12809); assay: hERG automated patch clamp assay (QPatch HT)
In short: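 Automated whole-cell patch clamp of hERG current in mammalian cells at room temperature. Compounds applied at 0.1, 1, 3, 10 and 30 μM, 3 min per concentration, n≥2 cells each.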

Jeko-1 cells = assay: Growth inhibition, MTS assay, Jeko-1; type: cell-based, Human; conditions: 72 hours, MTS cell viability, read-out: Jeko-1 ED50
DYRK1 = DYRK1 (Homo sapiens (Human), UniProt Q13627); assay: ADP-Glo Kinase Assay, DYRK1; type: biochemical; conditions: 1 μM compound; for inhibition at 1 µM: read-out: DYRK1A % INH (1 μM)
In short: as §1

HepG2 cells = assay: Growth inhibition, MTS assay, HepG2; type: cell-based, Human; conditions: MTS cell viability, read-out: HepG2 ED50
FLT3wt = FLT3wt (Homo sapiens (Human), UniProt P36888); assay: ADP-Glo Kinase Assay, Flt3 wt; type: biochemical; conditions: 1 μM compound; for inhibition at 1 µM: read-out: Flt3wt % INH (1 μM)
In short: as §1

CDK2/E = CDK2/E (Homo sapiens (Human), UniProt P24941); assay: ADP-Glo Kinase Assay, CDK2/E; type: biochemical; conditions: 1 μM compound; for inhibition at 1 µM: read-out: CDK2/E % INH (1 μM)
In short: as §1

CYP3A4 = CYP3A4 (Homo sapiens (Human), UniProt P08684); assay: Cytochrome P450 inhibition, fluorescence, CYP3A4; type: in vitro ADME; conditions: recombinant CYP3A4, fluorescence detection; read-out: CYP inhibition (CYP 3A4 screening, IC50 class)
Protocol: The assays for cytochrome P450 inhibition facilitate the identification of drug candidates with lower potential for drug-drug interactions (weak enzymes inhibitors). In vitro experiments were conducted to determine whether a drug inhibits a specific CYP enzyme. The experiments comprised the incubation of the drug with probe substrates for the CYP enzymes, wherein the following recombinant cytochrome P450 isoforms were employed: CYP1A2, CYP2C8, CYP2C9, CYP2C19, CYP2D6 and CYP3A4, together with various probe substrates enabling fluorescence detection. The protocol uses a single substrate concentration near the apparent Km and multiple compound concentrations.
The assay was performed in 96-well microtiter plates. The row designations were A through H and the column designations were 1 through 12. […] Each compound (see Table 6 for tested compounds) was added to the wells in column 1 and serially diluted to the wells in column 8. Wells 9 and 10 were control wells which contained no test compound (therefore no inhibition-full signal is detected.) The wells in columns 11 and 12 were blanks, where STOP solution was added prior to the addition of the enzyme/substrate mix to the NADPH regenerating system (the only signal present in these wells is background noise.) The assay was conducted in a final volume of 0.2 ml per well.
The stock solutions of the tested compounds were prepared in DMSO at 10 mM concentration. […] After mixing the compounds with solution containing NADPH-cofactors, the mixed plate was preincubated in a 37° C. incubator for at least 10 minutes; next, the fluorescence of compounds using recommended excitation/emission filters was measured in order to eliminate false results originating from autofluorescence of the compounds. In the following step, the enzyme/substrate mix was added to columns 1 through 10 and the plates were incubated at 37° C. for specific times depending on the CYP tested (incubation times ranged from 30 to 45 minutes). After adding STOP SOLUTION to all wells and respective enzyme/substrate mix to the wells in columns 11 and 12, the plate was scanned with a fluorescent plate scanner. The excitation/emission filters used for the specific assays are described in the GenTest Screening Kit instruction manual.

MOLM13 cells = assay: Growth inhibition, MTS assay, MOLM13; type: cell-based, Human; conditions: 72 hours, MTS cell viability, read-out: MOLM 13 ED50
Description: (§2) The following cell lines, were obtained and used in tests as outlined below: • Human myelomonocytic, biphenotypic leukemia MV4-11 cells (harboring a Flt3-ITD mutation); • Human Acute Myeloid Leukemia MOLM16 cells; • Human Acute Myeloid Leukemia MOLM13 cells (harboring a Flt3-ITD mutation); • Human Myeloid Leukemia KG-1 cells; • Human erythroleukemia HEL92 cells; • Human mantle cell lymphoma Jeko-1 cells; • Human hepatocellular carcinoma HepG2 cells; and • Human colon adenocarcinoma SW-480 cells.
(§3) The assays were carried out according to the following protocol, which is described as an example for the MV4-11 cells:
(§4) Ten thousand MV4-11 cells were inoculated into each well of a 96-well microplate (manufactured by Corning Corp.) using Iscove's MDM medium (culture medium) containing 10% fetal calf serum (FCS). The same day, a dimethyl sulfoxide (DMSO) solution of each test compound prepared in a concentration of 10 mmol/L was further diluted with DMSO to the desired concentrations (0.1, 0.5, 1, 2.5, 5 and 10 micromol/L), and the diluted solution was added to each well. The individual wells were further cultured in 5% carbon dioxide at 37° C. for 72 hours. […] Briefly, 10 μl MTS (3-(4,5-Dimethyl-2-thiazolyl)-5-(carboxymethoxyphenyl)-2-(4-sulfophenyl)-2H-tetrazolium was added to each well, and culturing was performed in 5% carbon dioxide at 37° C. for 2 hours. After this incubation and using a microplate spectrophotometer (Synergy 2 multi-mode microplate reader (BioTek)), the absorbance of each well was measured at 490 nm. The value for cells not incubated with a test compound was designated as 100%. By comparing these values with the absorbance difference obtained at the well in which each test compound was added, the cell viability (% viability) after treatment with the test compound was calculated.

KG-1 cells = assay: Growth inhibition, MTS assay, KG-1; type: cell-based, Human; conditions: 72 hours, MTS cell viability
Description: as §2, §3, §4

MOLM16 cells = assay: Growth inhibition, MTS assay, MOLM16; type: cell-based, Human; conditions: Homo sapiens, MOLM16, 72 h, MTS cell viability, read-out: MOLM 16 ED50
FLT3-ITD = assay: ADP-Glo Kinase Assay, Flt3 ITD; type: biochemical, Human; conditions: 1 μM compound
Protocol: Compounds of the present invention were tested for their inhibitory activity against Pim-1, Pim-2, Pim-3, Flt3 wt, Flt3 ITD, CDK2/E and DYRK1. The testing of the compounds was carried out using the ADP-Glo™ Kinase Assay from Promega Corporation (Madison, Wis., USA).
The ADP-Glo™ Kinase Assay is a luminescent ADP detection assay to measure kinase activity by quantifying the amount of ADP produced during a kinase reaction. The kinase assay is performed in kinase assay buffer (5 mM MOPS, pH 7.5, 5 mM MgCl2, 0.4 mM EDTA, 1.5 mM DTT). Test samples initially dissolved in DMSO at 10 mM were diluted with the assay buffer to 1000 nM. A 30 μL volume/well of a mixture of substrates containing ATP (final ATP concentration in each kinase assay was equal to its apparent ATP Km).
The assay was performed in two steps: first, after the kinase reaction, an equal volume of ADP-Glo™ Reagent was added to terminate the kinase reaction and deplete the remaining ATP. Second, the Kinase Detection Reagent was added to simultaneously convert ADP to ATP and allowed the newly synthesized ATP to be measured using a luciferase/luciferin reaction. The luminescent signal generated was proportional to the ADP concentration produced and was correlated with kinase activity. A microplate spectrophotometer (Synergy 2 multi-mode microplate reader [BioTek]) was used for detecting the luminescence. The data was normalized and the percent of inhibition was obtained according to the following equation: […]

Chain of Pim-2 (Q9P1W9 whole entry): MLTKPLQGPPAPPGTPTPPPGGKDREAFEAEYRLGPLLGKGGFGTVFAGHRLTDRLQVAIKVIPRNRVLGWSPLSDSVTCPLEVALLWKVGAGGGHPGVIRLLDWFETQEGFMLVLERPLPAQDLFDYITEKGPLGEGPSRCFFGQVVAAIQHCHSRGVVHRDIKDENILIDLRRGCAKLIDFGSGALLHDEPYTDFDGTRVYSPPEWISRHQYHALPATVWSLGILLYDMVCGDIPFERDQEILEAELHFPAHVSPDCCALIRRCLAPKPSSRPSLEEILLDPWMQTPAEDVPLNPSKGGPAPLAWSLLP
Chain of FLT3wt (P36888 27-993): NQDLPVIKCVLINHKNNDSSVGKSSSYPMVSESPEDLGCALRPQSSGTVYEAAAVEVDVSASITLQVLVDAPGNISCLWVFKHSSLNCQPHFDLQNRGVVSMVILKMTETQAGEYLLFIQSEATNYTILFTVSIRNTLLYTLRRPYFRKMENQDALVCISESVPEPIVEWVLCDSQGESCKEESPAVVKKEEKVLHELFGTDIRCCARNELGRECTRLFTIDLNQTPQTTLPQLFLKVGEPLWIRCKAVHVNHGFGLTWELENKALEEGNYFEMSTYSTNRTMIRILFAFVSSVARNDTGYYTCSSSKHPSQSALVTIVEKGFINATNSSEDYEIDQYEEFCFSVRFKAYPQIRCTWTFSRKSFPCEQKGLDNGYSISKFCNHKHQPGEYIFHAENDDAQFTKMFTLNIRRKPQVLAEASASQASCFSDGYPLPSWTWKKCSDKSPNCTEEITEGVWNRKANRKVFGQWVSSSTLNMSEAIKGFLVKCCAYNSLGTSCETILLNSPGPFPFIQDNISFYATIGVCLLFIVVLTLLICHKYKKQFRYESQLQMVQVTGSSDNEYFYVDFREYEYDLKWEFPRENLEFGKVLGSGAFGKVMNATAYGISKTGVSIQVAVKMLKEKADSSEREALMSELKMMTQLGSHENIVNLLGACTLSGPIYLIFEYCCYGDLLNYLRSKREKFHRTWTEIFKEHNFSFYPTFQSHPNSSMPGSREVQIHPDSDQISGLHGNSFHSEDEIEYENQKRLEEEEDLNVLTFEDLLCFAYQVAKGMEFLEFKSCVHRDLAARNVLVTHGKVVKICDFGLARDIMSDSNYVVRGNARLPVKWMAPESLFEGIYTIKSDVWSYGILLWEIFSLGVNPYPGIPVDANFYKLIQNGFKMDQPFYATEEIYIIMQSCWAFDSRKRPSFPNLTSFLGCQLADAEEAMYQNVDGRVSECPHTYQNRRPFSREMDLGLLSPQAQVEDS
Chain of Pim-1 (P11309 whole entry): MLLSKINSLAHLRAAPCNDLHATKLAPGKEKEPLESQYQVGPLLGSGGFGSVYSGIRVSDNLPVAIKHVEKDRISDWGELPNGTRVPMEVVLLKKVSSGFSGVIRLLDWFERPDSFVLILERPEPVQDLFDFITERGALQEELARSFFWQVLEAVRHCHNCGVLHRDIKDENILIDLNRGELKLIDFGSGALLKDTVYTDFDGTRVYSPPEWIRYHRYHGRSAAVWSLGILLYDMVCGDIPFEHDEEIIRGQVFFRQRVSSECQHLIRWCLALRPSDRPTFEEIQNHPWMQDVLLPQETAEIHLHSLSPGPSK
Chain of hERG potassium channel (Q12809 whole entry): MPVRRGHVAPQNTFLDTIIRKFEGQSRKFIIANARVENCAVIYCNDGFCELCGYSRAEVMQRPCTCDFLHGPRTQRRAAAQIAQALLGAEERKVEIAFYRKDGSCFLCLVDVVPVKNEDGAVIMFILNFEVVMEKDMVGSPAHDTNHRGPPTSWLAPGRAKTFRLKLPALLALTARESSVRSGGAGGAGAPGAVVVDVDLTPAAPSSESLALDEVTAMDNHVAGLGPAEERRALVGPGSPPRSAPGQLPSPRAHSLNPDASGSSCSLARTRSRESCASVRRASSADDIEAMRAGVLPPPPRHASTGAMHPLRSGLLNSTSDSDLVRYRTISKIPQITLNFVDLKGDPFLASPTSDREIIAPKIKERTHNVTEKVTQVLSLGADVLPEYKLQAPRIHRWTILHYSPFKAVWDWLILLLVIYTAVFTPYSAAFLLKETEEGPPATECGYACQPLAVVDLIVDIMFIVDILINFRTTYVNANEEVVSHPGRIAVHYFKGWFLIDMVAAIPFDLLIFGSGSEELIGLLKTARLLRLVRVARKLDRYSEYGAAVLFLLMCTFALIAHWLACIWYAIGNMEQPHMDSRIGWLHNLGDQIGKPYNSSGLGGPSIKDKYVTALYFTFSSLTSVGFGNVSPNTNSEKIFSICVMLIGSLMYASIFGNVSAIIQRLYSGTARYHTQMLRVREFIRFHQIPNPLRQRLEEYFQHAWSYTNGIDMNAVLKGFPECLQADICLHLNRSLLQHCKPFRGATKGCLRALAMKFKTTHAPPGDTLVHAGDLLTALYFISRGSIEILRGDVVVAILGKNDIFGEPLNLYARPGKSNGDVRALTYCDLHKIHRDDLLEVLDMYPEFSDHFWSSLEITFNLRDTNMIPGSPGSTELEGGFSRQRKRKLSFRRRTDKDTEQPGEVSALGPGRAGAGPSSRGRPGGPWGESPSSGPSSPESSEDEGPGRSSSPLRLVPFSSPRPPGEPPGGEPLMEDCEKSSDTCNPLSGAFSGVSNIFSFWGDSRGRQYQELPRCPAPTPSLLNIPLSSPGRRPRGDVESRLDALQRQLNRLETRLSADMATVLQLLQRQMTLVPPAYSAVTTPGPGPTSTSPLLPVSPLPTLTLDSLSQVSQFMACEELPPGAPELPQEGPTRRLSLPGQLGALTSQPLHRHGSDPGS
Chain of CYP3A4 (P08684 whole entry, canonical isoform): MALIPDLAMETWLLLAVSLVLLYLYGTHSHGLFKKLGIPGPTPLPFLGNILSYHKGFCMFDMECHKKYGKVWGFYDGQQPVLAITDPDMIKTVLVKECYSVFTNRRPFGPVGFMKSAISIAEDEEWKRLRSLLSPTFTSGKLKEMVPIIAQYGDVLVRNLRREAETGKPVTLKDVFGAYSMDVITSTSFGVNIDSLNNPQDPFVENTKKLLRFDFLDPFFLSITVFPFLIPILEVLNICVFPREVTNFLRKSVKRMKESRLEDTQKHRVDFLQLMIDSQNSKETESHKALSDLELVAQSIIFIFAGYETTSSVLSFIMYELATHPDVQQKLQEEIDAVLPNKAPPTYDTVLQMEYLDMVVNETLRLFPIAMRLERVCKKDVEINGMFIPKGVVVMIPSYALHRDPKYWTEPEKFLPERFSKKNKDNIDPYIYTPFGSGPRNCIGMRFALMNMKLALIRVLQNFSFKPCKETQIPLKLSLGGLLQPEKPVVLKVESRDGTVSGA

Row | Compound | IC50 (hERG potassium channel) [µM] | IC50 (CYP3A4) [µM] | KG-1 ED50 (KG-1 cells) [µM] | inhibition at 1 µM (Pim-2) [%] | inhibition at 1 µM (Pim-1) [%] | inhibition at 1 µM (Pim-3) [%] | IC50 (MV4-11 cells; Homo sapiens, MV4-11, 72 h) [µM] | IC50 (HEL92 cells; Homo sapiens, 72 h) [µM] | IC50 (MOLM16 cells) [µM] | IC50 (Jeko-1 cells; Homo sapiens, JeKo-1) [µM] | inhibition at 1 µM (DYRK1) [%] | IC50 (HepG2 cells; Homo sapiens, HepG2, 72 h) [µM] | inhibition at 1 µM (FLT3wt) [%] | inhibition at 1 µM (CDK2/E) [%] | IC50 (MOLM13 cells; Homo sapiens, MOLM-13) [µM] | Flt3ITD % INH (1 μM) (FLT3-ITD) [%] | also measured
1 | CC(C)n1c(N[C@H]2CCNC2)nc2c([N+](=O)[O-])c(Br)c(Br)cc21 [Example 1BD] | 4.34 | > 10 | – | – | – | – | – | – | – | – | – | – | – | – | – | – | Pim-2 % INH (1 μM) (Pim-2): 65%; Pim-1 % INH (1 μM) (Pim-1): >95%; Pim-3 % INH (1 μM) (Pim-3): 88%; IC50 (MV4-11 cells; 72 hours): 0.7 µM; IC50 (HEL92 cells; 72 hours): 5.5 µM; IC50 (Jeko-1 cells): 1.6 µM; DYRK1A % INH (1 μM) (DYRK1): 53%; IC50 (HepG2 cells; 72 hours): 3.3 µM; Flt3wt % INH (1 μM) (FLT3wt): 28%; CDK2/E % INH (1 μM) (CDK2/E): <5%; IC50 (MOLM13 cells): 2.1 µM
2 | CCn1c(N2CCC[C@H](N)C2)nc2c(C#N)c(Br)c(Br)cc21 [Example 1DQ] | – | – | 0.5 | 53 | > 95 | 86 | 0.9 | 7.6 | 0.1 | 1.6 | 38 | 1.4 | < 5 | < 5 | 2.8 | – | –
3 | CCn1c(N2CC[C@H](N)C2)nc2c(C#N)c(Br)c(Br)cc21 [Example 1DR] | – | – | 0.14 | 59 | > 95 | 91 | 1 | 6.2 | 0.1 | 1.3 | 65 | 1.2 | 18 | 28 | 3.9 | 50 | –
4 | CCn1c(N2CCC(N)CC2)nc2c(C#N)c(Br)c(Br)cc21 [Example 1DS] | – | – | 0.2 | 54 | > 95 | – | 0.8 | 5.8 | 0.32 | 1.4 | 23 | 0.6 | 8 | 47 | 9.9 | – | –
5 | CC(C)n1c(NC2CCC(N)CC2)nc2c(C#N)c(Br)c(Br)cc21 (centres unmarked) [Example 1DY] | – | – | 1.9 | 18 | > 95 | 62 | 2.3 | – | 1.1 | 2.8 | 20 | – | < 5 | 7 | 6.4 | – | –
6 | CC(C)n1c(NCCOCCN)nc2c([N+](=O)[O-])c(Br)c(Br)cc21 [Example 22J, N-[2-(2-aminoethoxy)ethyl]-5,6-dibromo-4-nitro-1-(propan-2-yl)-1H-1,3-benzodiazol-2-amine] | 11.9 | 3.3 to 10 | – | 31 | > 95 | 79 | 2.8 | – | – | – | 16 | 4.7 | < 5 | < 5 | – | 5 | –
